Test results reported in BindingDB's records for doi:10.1021/acsmedchemlett.5b00050 (Genomics Institute of The Novartis Research Foundation, 2015).
Each block holds one compound with its values, some of them ahead of it.

Legend:
[1] = Inhibition of Tel-fused FMS (unknown origin) expressed in mouse BA/F3 cells after 48 hrs by luciferase reporter gene assay in absence of recombinant mouse IL3
[2] = Inhibition of Tel-fused FGR (unknown origin) expressed in mouse BA/F3 cells after 48 hrs by luciferase reporter gene assay in absence of recombinant mouse IL3
[3] = Inhibition of Tel-fused ROS (unknown origin) expressed in mouse BA/F3 cells after 48 hrs by luciferase reporter gene assay in absence of recombinant mouse IL3
[4] = Inhibition of Tel-fused BMX (unknown origin) expressed in mouse BA/F3 cells after 48 hrs by luciferase reporter gene assay in absence of recombinant mouse IL3
[5] = Inhibition of Tel-fused KIT (unknown origin) expressed in mouse BA/F3 cells after 48 hrs by luciferase reporter gene assay in absence of recombinant mouse IL3
[6] = Inhibition of Tel-fused TRKB (unknown origin) overexpressed in mouse BA/F3 cells assessed as inhibition of cell proliferation after 48 hrs by luciferase reporter gene assay in absence of recombinant mouse IL3
[7] = Inhibition of Tel-fused TRKC (unknown origin) overexpressed in mouse BA/F3 cells assessed as inhibition of cell proliferation after 48 hrs by luciferase reporter gene assay in absence of recombinant mouse IL3
[8] = Inhibition of Tel-fused KDR (unknown origin) expressed in mouse BA/F3 cells after 48 hrs by luciferase reporter gene assay in absence of recombinant mouse IL3
[9] = Inhibition of Tel-fused SYK (unknown origin) expressed in mouse BA/F3 cells after 48 hrs by luciferase reporter gene assay in absence of recombinant mouse IL3
[10] = Inhibition of BCR-fused ABL (unknown origin) expressed in mouse BA/F3 cells after 48 hrs by luciferase reporter gene assay in absence of recombinant mouse IL3
[11] = Inhibition of Tel-fused RON (unknown origin) expressed in mouse BA/F3 cells after 48 hrs by luciferase reporter gene assay in absence of recombinant mouse IL3
[12] = Inhibition of Tel-fused ALK (unknown origin) expressed in mouse BA/F3 cells after 48 hrs by luciferase reporter gene assay in absence of recombinant mouse IL3
[13] = Inhibition of Tel-fused MER (unknown origin) expressed in mouse BA/F3 cells after 48 hrs by luciferase reporter gene assay in absence of recombinant mouse IL3
[14] = Inhibition of Tel-fused MET (unknown origin) expressed in mouse BA/F3 cells after 48 hrs by luciferase reporter gene assay in absence of recombinant mouse IL3
[15] = Inhibition of Tel-fused LCK (unknown origin) expressed in mouse BA/F3 cells after 48 hrs by luciferase reporter gene assay in absence of recombinant mouse IL3
[16] = Inhibition of Tel-fused INSR (unknown origin) expressed in mouse BA/F3 cells after 48 hrs by luciferase reporter gene assay in absence of recombinant mouse IL3
[17] = Inhibition of Tel-fused FLT3 (unknown origin) expressed in mouse BA/F3 cells after 48 hrs by luciferase reporter gene assay in absence of recombinant mouse IL3
[18] = Inhibition of Tel-fused TIE1 (unknown origin) expressed in mouse BA/F3 cells after 48 hrs by luciferase reporter gene assay in absence of recombinant mouse IL3
[19] = Inhibition of Tel-fused FLT1 (unknown origin) expressed in mouse BA/F3 cells after 48 hrs by luciferase reporter gene assay in absence of recombinant mouse IL3
[20] = Inhibition of Tel-fused BRAF (unknown origin) expressed in mouse BA/F3 cells after 48 hrs by luciferase reporter gene assay in absence of recombinant mouse IL3
[21] = Inhibition of Tel-fused IGF1R (unknown origin) expressed in mouse BA/F3 cells after 48 hrs by luciferase reporter gene assay in absence of recombinant mouse IL3
[22] = Inhibition of Tel-fused FGFR3 (unknown origin) expressed in mouse BA/F3 cells after 48 hrs by luciferase reporter gene assay in absence of recombinant mouse IL3
[23] = Inhibition of Tel-fused FGFR4 (unknown origin) expressed in mouse BA/F3 cells after 48 hrs by luciferase reporter gene assay in absence of recombinant mouse IL3
[24] = Inhibition of Tel-fused ZAP70 (unknown origin) expressed in mouse BA/F3 cells after 48 hrs by luciferase reporter gene assay in absence of recombinant mouse IL3
[25] = Inhibition of Tel-fused PDGFRbeta (unknown origin) expressed in mouse BA/F3 cells after 48 hrs by luciferase reporter gene assay in absence of recombinant mouse IL3
[26] = Inhibition of Tel-fused TRKA (unknown origin) overexpressed in mouse BA/F3 cells assessed as inhibition of cell proliferation after 48 hrs by luciferase reporter gene assay in absence of recombinant mouse IL3
[27] = Inhibition of NGF-activated full length TRKA (unknown origin) expressed in mouse BA/F3 cells assessed as inhibition of cell proliferation
[28] = Inhibition of NMP-fused ALK (unknown origin) expressed in mouse BA/F3 cells after 48 hrs by luciferase reporter gene assay in absence of recombinant mouse IL3
[29] = Inhibition of Tel-fused SRC (unknown origin) expressed in mouse BA/F3 cells after 48 hrs by luciferase reporter gene assay in absence of recombinant mouse IL3
[30] = Inhibition of Tel-fused LYN (unknown origin) expressed in mouse BA/F3 cells after 48 hrs by luciferase reporter gene assay in absence of recombinant mouse IL3
[31] = Inhibition of Tel-fused TYRO3 (unknown origin) expressed in mouse BA/F3 cells after 48 hrs by luciferase reporter gene assay in absence of recombinant mouse IL3
[32] = Inhibition of TPM3-fused TRKA (unknown origin) expressed in human KM12 cells assessed as inhibition of cell proliferation after 48 hrs by luciferase reporter gene assay
[33] = Inhibition of Tel-fused RET (unknown origin) expressed in mouse BA/F3 cells after 48 hrs by luciferase reporter gene assay in absence of recombinant mouse IL3

Structure (SMILES): N#Cc1ccc(-c2cnc3ccc(NCc4ccccc4)nn23)cc1
IC50 [1]: 3400 nM | IC50 [8]: 4100 nM | IC50 [9]: 4000 nM | IC50 [2]: 6400 nM | IC50 [10]: 3800 nM | IC50 [11]: 6100 nM | IC50 [3]: 300 nM | IC50 [4]: 9700 nM | IC50 [12]: 3100 nM | IC50 [5]: 2200 nM | IC50 [13]: 5400 nM | IC50 [14]: 5100 nM | IC50 [15]: 2000 nM | IC50 [16]: 8600 nM | IC50 [17]: 720 nM | IC50 [18]: 5500 nM | IC50 [19]: 3000 nM | IC50 [20]: 2500 nM | IC50 [21]: 4000 nM | IC50 [22]: 3900 nM | IC50 [23]: 5900 nM | IC50 [24]: 6400 nM | IC50 [25]: 2000 nM | IC50 [6]: 270 nM | IC50 [7]: 100 nM | IC50 [26]: 850 nM

Structure (SMILES): N#Cc1ccc(-c2cnc3ccc(N4CCCC4c4cccc(F)c4)nn23)cc1 (centres undefined)
IC50 [6]: 29 nM

Structure (SMILES): N#Cc1ccc(-c2cnc3ccc(N4CCC[C@H]4c4cccc(F)c4)nn23)cc1
IC50 [6]: 1970 nM

Structure (SMILES): CN(Cc1ccccc1)c1ccc2ncc(-c3ccc(C#N)cc3)n2n1
IC50 [6]: 130 nM | IC50 [26]: 520 nM

Structure (SMILES): N#Cc1ccc(-c2cnc3ccc(N4CCCCC4c4cccc(F)c4)nn23)cc1 (centres undefined)
IC50 [6]: 50 nM

Structure (SMILES): COc1ccccc1CNc1ccc2ncc(-c3ccc(C#N)cc3)n2n1
IC50 [6]: 120 nM | IC50 [26]: 170 nM

Structure (SMILES): N#Cc1cccc(-c2cnc3ccc(NCc4ccccc4)nn23)c1
IC50 [6]: 200 nM | IC50 [26]: 740 nM

These reach a lower IC50 [6]. Values come first.

IC50 [1]: > 10000 nM | IC50 [2]: 8700 nM | IC50 [3]: 600 nM | IC50 [4]: > 10000 nM | IC50 [5]: 5500 nM | IC50 [6]: 1 nM | IC50 [7]: 1 nM
Structure (SMILES): Fc1cccc([C@H]2CCCN2c2ccc3ncc(-c4ccccn4)n3n2)c1

IC50 [27]: 3 nM | IC50 [1]: 5300 nM | IC50 [8]: 5000 nM | IC50 [9]: 7900 nM | IC50 [10]: 5200 nM | IC50 [11]: 4800 nM | IC50 [28]: 3000 nM | IC50 [3]: 210 nM | IC50 [4]: 4300 nM | IC50 [12]: 3900 nM | IC50 [29]: 4600 nM | IC50 [5]: 7000 nM | IC50 [13]: 5100 nM | IC50 [15]: 5200 nM | IC50 [30]: 4900 nM | IC50 [17]: 4300 nM | IC50 [19]: 5300 nM | IC50 [22]: 5000 nM | IC50 [31]: 5000 nM | IC50 [23]: 4400 nM | IC50 [25]: 4600 nM | IC50 [32]: 10 nM | IC50 [6]: 4 nM | IC50 [7]: 2 nM | IC50 [26]: 4 nM
Structure (SMILES): OC1CCN(c2cc(-c3cnc4ccc(N5CCC[C@@H]5c5cccc(F)c5)nn34)ccn2)CC1

IC50 [27]: 1 nM | IC50 [1]: 2500 nM | IC50 [8]: 1000 nM | IC50 [9]: 4400 nM | IC50 [10]: 2400 nM | IC50 [28]: 1200 nM | IC50 [3]: 60 nM | IC50 [33]: 3700 nM | IC50 [12]: 2200 nM | IC50 [29]: 2500 nM | IC50 [5]: 790 nM | IC50 [14]: 4300 nM | IC50 [15]: 3000 nM | IC50 [30]: 3400 nM | IC50 [16]: 5300 nM | IC50 [17]: 3300 nM | IC50 [18]: 4300 nM | IC50 [20]: 6200 nM | IC50 [21]: 5100 nM | IC50 [31]: 5200 nM | IC50 [23]: 5300 nM | IC50 [24]: 5200 nM | IC50 [25]: 2200 nM | IC50 [32]: 1 nM | IC50 [6]: 1 nM | IC50 [7]: < 1 nM | IC50 [26]: 1 nM
Structure (SMILES): O=C(O)CN1CCN(c2cc(-c3cnc4ccc(N5CCC[C@@H]5c5cccc(F)c5)nn34)ccn2)CC1

IC50 [6]: 11 nM
Structure (SMILES): N#Cc1ccc(-c2cnc3ccc(N4CCC[C@@H]4c4cccc(F)c4)nn23)cc1

IC50 [6]: 13 nM | IC50 [26]: 27 nM
Structure (SMILES): NS(=O)(=O)c1ccc(-c2cnc3ccc(NCc4cccc(F)c4)nn23)cc1

IC50 [6]: 21 nM | IC50 [26]: 50 nM
Structure (SMILES): N#Cc1ccc(-c2cnc3ccc(NCc4cccc(F)c4)nn23)cc1

IC50 [6]: 27 nM | IC50 [26]: 76 nM
Structure (SMILES): OCc1ccc(-c2cnc3ccc(NCc4cccc(F)c4)nn23)cc1

IC50 [6]: 7 nM | IC50 [26]: 6 nM
Structure (SMILES): O=C(Nc1ccc(-c2cnc3ccc(NCc4cccc(F)c4)nn23)cc1)C1CCOCC1

IC50 [6]: 4 nM
Structure (SMILES): OC1CCN(c2cccc(-c3cnc4ccc(N5CCC[C@@H]5c5cccc(F)c5)nn34)n2)CC1
